Among the data in BindingDB's records for patent US10870641 (Ribon Therapeutics, 2020) are IC50 values, retold here.

The experiment deals with T1, Protein mono-ADP-ribosyltransferase TIPARP (Homo sapiens, UniProt Q7Z3E1).
T1 sequence (Q7Z3E1 whole entry): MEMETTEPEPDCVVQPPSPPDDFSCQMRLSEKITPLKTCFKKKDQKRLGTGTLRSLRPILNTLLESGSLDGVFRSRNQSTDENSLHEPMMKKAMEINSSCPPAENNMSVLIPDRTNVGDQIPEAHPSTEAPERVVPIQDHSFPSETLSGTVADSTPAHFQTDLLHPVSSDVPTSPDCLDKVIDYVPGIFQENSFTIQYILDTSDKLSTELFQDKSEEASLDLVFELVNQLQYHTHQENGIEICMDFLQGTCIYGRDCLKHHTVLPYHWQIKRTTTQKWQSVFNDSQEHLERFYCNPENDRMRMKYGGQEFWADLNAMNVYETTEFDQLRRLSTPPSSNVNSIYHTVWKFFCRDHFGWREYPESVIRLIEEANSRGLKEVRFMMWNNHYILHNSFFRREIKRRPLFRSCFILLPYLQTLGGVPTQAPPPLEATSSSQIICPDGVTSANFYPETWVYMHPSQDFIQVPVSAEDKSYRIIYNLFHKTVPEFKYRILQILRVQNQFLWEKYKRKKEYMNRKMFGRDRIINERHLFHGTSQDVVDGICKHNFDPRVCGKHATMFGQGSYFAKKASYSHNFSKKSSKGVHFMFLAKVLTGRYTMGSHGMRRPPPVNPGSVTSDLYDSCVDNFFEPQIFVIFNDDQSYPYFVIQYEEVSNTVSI
The experiment in a line: Enzymatic Assay. As for the experimental part:
Displacement of Probe A, a biotinylated probe binding to the TIPARP active site, was measured using a time-resolved fluorescence energy transfer (TR-FRET) assay. 20 nL of a dose response curve of each test compound was spotted in black 384-well polystyrene proxiplates (Perkin Elmer) using a Mosquito (TTP Labtech). Reactions were performed in a 8 μL volume by adding […] of TIPARP and Probe A in assay buffer (20 mM HEPES pH=8, 100 mM NaCl, 0.1% bovine serum albumin, 2 mM DTT and 0.002% Tween20), incubating with test compound at 25° C. for 30 min, then adding 2 μL of ULight-anti 6×His and LANCE Eu-W1024 labeled streptavidin (Perkin Elmer). The final concentrations of TIPARP and Probe A were 6 nM and 2 nM, respectively.

SMILES strings stand for the structures. A value given as a limit tells only on which side of the number the result lay.

In general, IC50 refers to the concentration at which inhibition is half-maximal. A higher IC50 goes with a need for much substance. Take `N#Cc1cnc(N2CCN(C(=O)c3cc(OC[C@@H]4c5ccccc5CN4c4cn[nH]c(=O)c4C(F)(F)F)ccn3)CC2)nc1` [US10870641, Example 64B]: the half-maximal inhibitory concentration (IC50) is greater than 1000 nM.
With `N#Cc1ccc(N2CCN(C(=O)/C=C/COC[C@H]3CCCN3c3cn[nH]c(=O)c3C(F)(F)F)CC2)nc1` [US10870641, Example 96B] the figure was less than 100 nM; with `C[C@@H](CC(=O)N1CCN(c2ccc(C#N)cn2)CC1)OCCOc1cn[nH]c(=O)c1C(F)(F)F` [US10870641, Example 538A], “in the range around 550 nM”.
